# Experimental data from US11925450B2, “Methods and apparatus for guiding medical care based on detected gastric function” (Gravitas Medical, Inc., priority 2011, dated 2024).
# Like-named read-outs stand apart in the source and are kept apart here.
# Columns and labels:
# gastric juice pH [1] = conditions: cited from earlier work
# [2] = cited from earlier work; for Volume of HCl neutralized by 30 ml: 30 ml (sodium citrate 0.3M)
# gastric juice pH [3] = conditions: 30 ml of 0.3 M, pretreatment in elective cesarean section patients; cited from earlier work
# [4] = cited from earlier work
# [5] = in vivo; cited from earlier work
# [6] = approximately 5 ml of 8.4% solution
# Experimental: In particular, 5 mls of this 8.4% solution can be administered into a patient's stomach at least 15 minutes prior to baseline measurement of gastric juice pH and administration of stimulant, such as pentagastrin.
smiles,measurement,setting,value
"O=C([O-])CC(O)(CC(=O)[O-])C(=O)[O-].[Na+].[Na+].[Na+] [Sodium Citrate, sodium citrate]","gastric juice pH, mean after administration","gastric juice pH [1]; 50 ml of 0.3 M into the stomach via nasogastric tube, within two minutes, baseline 1.2±0.1",4.8
same,"gastric juice pH, range after administration","gastric juice pH [1]; 50 ml of 0.3 M via nasogastric tube, within two minutes",6.7-7.0
same,time gastric juice pH maintained above 6,gastric juice pH [1]; 50 ml of 0.3 M,at least 2 hours
same,gastric juice pH maintained after administration,"gastric juice pH [1]; 50 ml of 0.3 M, for at least 2 hours",above 6
same,Volume of HCl neutralized by 30 ml,[2]; HCl pH 0.8,140 mL
same,Volume of HCl neutralized by 30 ml,[2]; HCl pH 1 (1.0),255 mL
same,Volume of HCl neutralized by 30 ml,"[2]; HCl pH 1 (1.0), listed as sodium citrate",up to 255 ml
same,Volume of HCl neutralized by 30 ml,[2]; HCl pH 1.5,750 mL
same,pH (value in parentheses after the antacid's name),"[2]; presumably pH of the antacid itself, not explained",Sodium Citrate (8.5)
same,change in gastric juice pH,gastric juice pH [3],significant increase in gastric juice pH
Cl.Cl.NCCc1ccn[nH]1 [betazole hydrocholoride],side effects,[4]; orally administered,few side effects
NCCc1c[nH]cn1 [histamine],side effects,[4]; large doses,severe hypotension
CSCC[C@H](NC(=O)[C@H](Cc1c[nH]c2ccccc12)NC(=O)CCNC(=O)OC(C)(C)C)C(=O)N[C@@H](CC(=O)O)C(=O)N[C@@H](Cc1ccccc1)C(N)=O [pentagastrin],safety profile,[4]; in vivo,very good safety profile
same,side effects,[4]; intravenous 0.5 mcg/kg bolus over 30 seconds,abdominal fullness and an urge to defecate
same,side effects,[4]; intravenous administration,"transient mild side effects, e.g., anxiety, palpitations"
same,half-life,[5],approximately 10 minutes
O=C([O-])O.[Na+] [sodium bicarbonate],volume of gastric juice (pH 1.0) neutralized,[6],50 ml
